The values that follow come from patent US9523109B2, “Method for enzymatically preparing peptides for use in improvement of brain function” (CALPIS CO., LTD., priority 2011, dated 2016).

Where no end group is shown, it is not given here.

The subject of experiment [1] is scopolamine-induced amnesia. Description: Y-shaped maze test (spontaneous alternation behavior) after scopolamine-induced brain dysfunction. It counts as in vivo, Male ddY mice. The settings on record: scopolamine 1 mg/kg s.c. On the procedure: Male ddY mice (about 7 weeks old) were used (n=15 to 75), and provided with food and water ad libitum. Asn-Ile-Pro-Pro-Leu-Thr-Gln-Thr-Pro-Val-Val-Val-Pro-Pro-Phe-Leu-Gln-Pro-Glu (SEQ ID NO: 1) was used as a test substance in amounts of 0.05 nmol/kg body weight (0.1 μg/kg body weight), 0.5 nmol/kg body weight (1 μg/kg body weight), 1.5 nmol/kg body weight (3 μg/kg body weight), 5 nmol/kg body weight (10 μg/kg body weight), 50 nmol/kg body weight (100 μg/kg body weight), and 500 nmol/kg body weight (1,000 μg/kg body weight). The test substance was administered as a single dose orally to mice 60 minutes before performing a Y-shaped maze test for evaluating spontaneous alternation behavior. Thirty minutes before performing the Y-shaped maze test, scopolamine was subcutaneously administered in an amount of 1 mg/kg body weight into the back to induce brain dysfunction (memory disorder and/or cognition disorder) in mice. In the Y-shaped maze test, as an experiment device, a Y-shaped maze was used in which the length for each arm was 40 cm; the wall height was 12 cm; the floor width was 3 cm; the upper part width was 10 cm; and three arms were connected to each other at an angle of 120°. Each mouse was placed in the end of any of the alms of the Y-shaped maze and allowed to explore freely in the maze over 8 minutes, and the sequence of the arms to which the mouse moved was recorded. The number of movements of the mouse to the arms within the measurement time was counted and used as the total number of entries; in the sequence, the combination in which three different arms were selected in succession (for example, with the three arms respectively called A, B, and C, if the sequence of the arms entered is ABCBACACB, the count is 4 inclusive of overlapping) was investigated, and the count number was used as the number of spontaneous alternation behaviors. The change in spontaneous alternation behavior (%) was calculated by dividing the number of spontaneous alternation behaviors by a number obtained by subtracting 2 from the total number of entries, and multiplying the resultant number by 100, and the percentage was used as an indicator of the spontaneous alternation behavior. […] The measured values were expressed as mean±standard error for each group. The significance of difference between the control group and the scopolamine control group was tested by Student's t-test. […]
Male ddY mice (about 7 weeks old) were used (n=15 to 45), and provided with food and water ad libitum. […] Each mouse was placed in the end of any of the arms of the Y-shaped maze and allowed to explore freely in the maze over 8 minutes, and the sequence of the arms to which the mouse moved was recorded. […]

Another experiment concerns memory retention. Description: novel object recognition test for evaluating memory retention. It counts as in vivo, Male ddY mice. The settings on record: Example 6, FIG. 7; single oral dose 500 nmol/kg body weight (1,000 μg/kg) 60 min before training trial; retention trial 48 hours later. On the procedure:
Male ddY mice (about 7 weeks old) were used (n=14 to 15), and provided with food and water ad libitum. As a test substance, 500 nmol/kg body weight (1,000 μg/kg body weight) of Asn-Ile-Pro-Pro-Leu-Thr-Gln-Thr-Pro-Val-Val-Val-Pro-Pro-Phe-Leu-Gln-Pro-Glu (SEQ ID NO: 1) was used. The test substance was administered as a single dose orally to mice 60 minutes before performing a novel object recognition test for evaluating memory retention. In the novel object recognition test, a 30×30×30 cm box was used as an experiment device. As a conditioning operation, a mouse was placed in an experiment device in which a floorcloth was laid for 5 minutes, and allowed to explore freely in the device. A training trial was performed the day following the conditioning operation. […] Sixty minutes after orally administering the test substance or water, a mouse was placed in the experiment device for 5 minutes, and the time (second) was measured during which the mouse explored by approaching each object to be within 1 cm therefrom. […] (However, the state in which a mouse rides on an object is excluded.) The percentages of the times were determined during which two objects were explored in each of the training trial and the retention trial. The percentage (%) of the exploration time for each object was expressed as mean±standard error for each of the groups. […]

Setting [2] is: Example 5, FIG. 6, single oral dose 50 nmol/kg body weight 60 min before test.

For NIPPLTQTPVVVPPFLQPE [SEQ ID NO: 1], the “amnesia-preventing action (change in spontaneous alternation behavior)” value is “amnesia-preventing action” in experiment [1] (Example 4, FIG. 5, single oral dose 60 min before test, range 0.05 nmol/kg body weight to 500 nmol/kg body weight (0.1 to 1,000 μg/kg)) and “amnesia-preventing action” in experiment [1] (setting [2]). The “memory-enhancing action (percentage of exploration time for novel object)” value with memory retention was “memory-enhancing action”.

On to SWMHQPHQPLPPTVMFPPQSVL [SEQ ID NO: 3], for which the “amnesia-preventing action (change in spontaneous alternation behavior)” value in experiment [1] (Example 7, FIG. 8, single oral dose 150 nmol/kg body weight to 500 nmol/kg body weight (380 to 1,280 μg/kg)) is listed as “amnesia-preventing action”.

For the sequence NIPPLTQTPVVVPPFLQPEVM [SEQ ID NO: 2], the “amnesia-preventing action (change in spontaneous alternation behavior)” value in experiment [1] (setting [2]) is reported as “amnesia-preventing action”.
